Reference: patent publication US8580965B2, “Substituted sulfonamide compounds” (Gruenenthal GmbH, priority 2006, dated 2013)
Where a name gives a salt, the structure may show the parent alone.

Tests used:
[1] = target: T1, B1R receptor of the rat (bradykinin 1 receptor) (Rattus norvegicus, UniProt P97583); assay: FLIPR Ca2+ assay (Fluo-4) on CHO K1 cells stably transfected with the B1R gene of the rat; % activation and % inhibition at 10 μM; assay type: cell-based; details: CHO K1 rB1R cells, Ca2+ inflow after 100 nM Des-Arg9-bradykinin
T1 construct: host or cells: CHO K1 cells (rB1R cells)
T1 sequence (P97583 1-337): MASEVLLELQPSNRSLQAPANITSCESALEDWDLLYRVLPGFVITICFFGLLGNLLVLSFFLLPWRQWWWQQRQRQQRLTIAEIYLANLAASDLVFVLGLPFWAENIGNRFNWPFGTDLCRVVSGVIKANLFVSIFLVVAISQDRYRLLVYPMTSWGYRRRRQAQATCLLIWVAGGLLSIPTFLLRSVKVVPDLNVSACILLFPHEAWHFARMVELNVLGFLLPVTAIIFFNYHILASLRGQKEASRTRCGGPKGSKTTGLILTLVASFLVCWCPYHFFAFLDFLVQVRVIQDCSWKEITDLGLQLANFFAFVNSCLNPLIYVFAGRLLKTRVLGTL
Method in brief: (§1)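 CHO K1 cells stably expressing human or rat B1R, Fluo-4 loaded, read by FLIPR (peak fluorescence). Compound at 10 µM first gives % activation versus agonist; after 10 min, agonist (human: 0.5 nM Lys-Des-Arg9-bradykinin; rat: 100 nM Des-Arg9-bradykinin) gives % inhibition relative to maximal inhibition.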

[2] = tested on: formalin-induced nociceptive reaction (phase 2); assay: Formalin test mouse (phase 2, chronic pain component); assay type: in vivo; details: phase 2 (21 to 24 min after formalin), i.v., 10 mg/kg, 5 min before formalin, change in percent compared with vehicle control
Description: The formalin test (Dubuisson, D. and Dennis, S. G., 1977, Pain, 4, 161-174) represents a model for both acute and chronic pain. By means of a single formalin injection into the dorsal side of a rear paw, a biphasic nociceptive reaction is induced in freely mobile test animals; the reaction is detected by observing three behavior patterns which are clearly distinguishable from one another. The reaction is two-phase: phase 1=immediate reaction (duration up to 10 min., shaking of the paw, licking), phase 2=late reaction (after a rest phase; likewise shaking of the paw, licking; duration up to 60 min.). […] In the studies described here, the chronic pain component (phase 2) has been evaluated.
Formalin in a volume of 20 μl and a concentration of 1% is administered subcutaneously into the dorsal side of the right rear paw of each animal. The specific changes in behavior, such as lifting, shaking or licking of the paw (score 3, Dubuisson & Dennis, 1977), are observed and recorded in the observation period of 21 to 24 min following the formalin injection.
The behavior of the animals after administration of the substance (n=10 per dose of substance) was compared with a control group which received vehicle (n=10). Based on the quantification of the pain behavior, the activity of the test substance in the formalin test was determined as the change, in percent, compared with the control. […]

[3] = target: T2, human B1R receptor (bradykinin 1 receptor) (Homo sapiens, UniProt P46663); assay: FLIPR Ca2+ assay (Fluo-4) on CHO K1 cells stably transfected with the human B1R gene; % activation and % inhibition at 10 μM; assay type: cell-based; details: CHO K1 hB1R cells, Ca2+ inflow after 0.5 nM Lys-Des-Arg9-bradykinin
T2 construct: host or cells: CHO K1 cells (hB1R cells)
T2 sequence (P46663 1-353): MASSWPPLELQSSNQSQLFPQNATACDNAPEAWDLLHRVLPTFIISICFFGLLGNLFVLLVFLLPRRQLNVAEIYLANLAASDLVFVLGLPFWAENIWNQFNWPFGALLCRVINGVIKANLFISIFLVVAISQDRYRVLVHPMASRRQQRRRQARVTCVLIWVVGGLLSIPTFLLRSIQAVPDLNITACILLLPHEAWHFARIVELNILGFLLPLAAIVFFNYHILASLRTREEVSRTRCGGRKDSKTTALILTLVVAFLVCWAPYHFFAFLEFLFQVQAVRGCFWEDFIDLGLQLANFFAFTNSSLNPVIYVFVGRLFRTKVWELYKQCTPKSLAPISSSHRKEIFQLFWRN
Method in brief: as §1

[4] = test substance 10 μM, hydrochloride

inhibition at 10 µM ([1]; CHO-K1, test substance 10 μM, read-out: B1R antagonism, rat [10 μM] % inhibition) [%] | inhibition at 10 µM ([3]; CHO-K1, test substance 10 μM, read-out: B1R antagonism, human [10 μM] % inhibition) [%] | Structure (SMILES) | B1R antagonism, rat [10 μM] % inhibition [1, 4] [%] | Substance action: antinociception [2] [% antinociception] | B1R antagonism, human [10 μM] % inhibition [3, 4] [%]
– | – | COc1cc(C)c(S(=O)(=O)N2CCCCC2COCC(=O)N2CCC(O)(c3cccnc3)CC2)c(C)c1 (centres unmarked) [Example 87, 1-(4′-hydroxy-3′,4′,5′,6′-tetrahydro-2′H-[3,4′]bipyridinyl-1′-yl)-2-[1-(4-methoxy-2,6-dimethyl-phenylsulfonyl)-piperidin-2-ylmethoxy]-ethanone; hydrochloride] | 101.93 | 23 | 101.8
100 | 100 | COc1cc(C)c(S(=O)(=O)N(C)CCOCC(=O)N2CCC(O)(Cc3ccncc3)CC2)c(C)c1 [Example 280, N-(2-(2-(4-hydroxy-4-(pyridin-4-ylmethyl)piperidin-1-yl)-2-oxoethoxy)ethyl)-4-methoxy-N,2,6-trimethylphenylsulfonamide] | – | – | –
